Results on 3 compounds are retold here after ChEMBL document CHEMBL5715954, “Silencing c-Myc translation as a therapeutic strategy through targeting PI3Kδ and CK1ε in hematological malignancies” (Blood, 2017).

Common to all, as to design: scale not given: the % may be the effect or the level left
Experiment [1] deals with Activated CDC42 kinase 1 (Homo sapiens) (UniProt Q07912). As to the kind of experiment: Inhibition of human ACK1 assessed as enzyme activity at 1 uM using EAIYAAPFAKKK as substrate preincubated for 20 mins followed by [gamma-33P]-ATP addition and measured after 120 mins by radiometric Hot-SpotSM Kinase assay relative to control.
Sequence of Activated CDC42 kinase 1 (Homo sapiens) (Q07912 whole entry, looked up): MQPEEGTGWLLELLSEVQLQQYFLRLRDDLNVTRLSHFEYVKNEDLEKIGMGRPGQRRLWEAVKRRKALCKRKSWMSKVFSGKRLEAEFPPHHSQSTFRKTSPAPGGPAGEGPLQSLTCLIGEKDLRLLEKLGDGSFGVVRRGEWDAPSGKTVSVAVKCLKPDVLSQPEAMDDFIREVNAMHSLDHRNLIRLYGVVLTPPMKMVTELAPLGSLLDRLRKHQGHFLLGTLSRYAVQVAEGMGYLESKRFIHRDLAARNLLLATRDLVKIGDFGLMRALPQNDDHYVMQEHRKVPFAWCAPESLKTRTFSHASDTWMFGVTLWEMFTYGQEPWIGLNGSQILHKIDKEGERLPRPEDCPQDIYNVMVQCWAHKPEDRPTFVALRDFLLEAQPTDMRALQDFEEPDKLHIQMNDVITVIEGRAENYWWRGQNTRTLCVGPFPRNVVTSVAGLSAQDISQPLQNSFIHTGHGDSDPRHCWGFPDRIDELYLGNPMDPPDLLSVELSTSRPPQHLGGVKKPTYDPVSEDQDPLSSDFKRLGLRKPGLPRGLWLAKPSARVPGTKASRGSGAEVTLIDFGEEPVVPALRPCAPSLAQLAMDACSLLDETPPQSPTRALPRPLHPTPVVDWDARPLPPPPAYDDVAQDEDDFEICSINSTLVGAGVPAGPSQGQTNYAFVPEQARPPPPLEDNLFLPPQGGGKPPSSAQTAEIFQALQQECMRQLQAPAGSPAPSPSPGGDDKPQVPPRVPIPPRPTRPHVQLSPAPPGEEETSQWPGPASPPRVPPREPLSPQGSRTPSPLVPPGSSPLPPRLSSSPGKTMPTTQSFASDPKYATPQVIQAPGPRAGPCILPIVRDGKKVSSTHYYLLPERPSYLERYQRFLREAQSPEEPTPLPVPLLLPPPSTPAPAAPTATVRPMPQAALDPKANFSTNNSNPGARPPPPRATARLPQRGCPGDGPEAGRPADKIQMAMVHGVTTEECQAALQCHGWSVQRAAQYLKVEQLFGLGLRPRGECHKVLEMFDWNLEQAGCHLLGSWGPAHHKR
Experiment [2] deals with CDK4/Cyclin D3 (Homo sapiens) (UniProt P11802+P30281). Nature of the experiment: Inhibition of human CDK4/cyclin D3 assessed as enzyme activity at 1 uM using RB-CTF as substrate preincubated for 20 mins followed by [gamma-33P]-ATP addition and measured after 120 mins by radiometric Hot-SpotSM Kinase assay relative to control. It is filed as protein-complex assay.
For experiment [3], the target named is Epidermal growth factor receptor (Homo sapiens) (UniProt P00533). Nature of the experiment: Inhibition of human EGFR assessed as enzyme activity at 1 uM using poly[Glu:Tyr] (4:1) as substrate preincubated for 20 mins followed by [gamma-33P]-ATP addition and measured after 120 mins by radiometric Hot-SpotSM Kinase assay relative to control.
Sequence of Epidermal growth factor receptor (Homo sapiens) (P00533 whole entry): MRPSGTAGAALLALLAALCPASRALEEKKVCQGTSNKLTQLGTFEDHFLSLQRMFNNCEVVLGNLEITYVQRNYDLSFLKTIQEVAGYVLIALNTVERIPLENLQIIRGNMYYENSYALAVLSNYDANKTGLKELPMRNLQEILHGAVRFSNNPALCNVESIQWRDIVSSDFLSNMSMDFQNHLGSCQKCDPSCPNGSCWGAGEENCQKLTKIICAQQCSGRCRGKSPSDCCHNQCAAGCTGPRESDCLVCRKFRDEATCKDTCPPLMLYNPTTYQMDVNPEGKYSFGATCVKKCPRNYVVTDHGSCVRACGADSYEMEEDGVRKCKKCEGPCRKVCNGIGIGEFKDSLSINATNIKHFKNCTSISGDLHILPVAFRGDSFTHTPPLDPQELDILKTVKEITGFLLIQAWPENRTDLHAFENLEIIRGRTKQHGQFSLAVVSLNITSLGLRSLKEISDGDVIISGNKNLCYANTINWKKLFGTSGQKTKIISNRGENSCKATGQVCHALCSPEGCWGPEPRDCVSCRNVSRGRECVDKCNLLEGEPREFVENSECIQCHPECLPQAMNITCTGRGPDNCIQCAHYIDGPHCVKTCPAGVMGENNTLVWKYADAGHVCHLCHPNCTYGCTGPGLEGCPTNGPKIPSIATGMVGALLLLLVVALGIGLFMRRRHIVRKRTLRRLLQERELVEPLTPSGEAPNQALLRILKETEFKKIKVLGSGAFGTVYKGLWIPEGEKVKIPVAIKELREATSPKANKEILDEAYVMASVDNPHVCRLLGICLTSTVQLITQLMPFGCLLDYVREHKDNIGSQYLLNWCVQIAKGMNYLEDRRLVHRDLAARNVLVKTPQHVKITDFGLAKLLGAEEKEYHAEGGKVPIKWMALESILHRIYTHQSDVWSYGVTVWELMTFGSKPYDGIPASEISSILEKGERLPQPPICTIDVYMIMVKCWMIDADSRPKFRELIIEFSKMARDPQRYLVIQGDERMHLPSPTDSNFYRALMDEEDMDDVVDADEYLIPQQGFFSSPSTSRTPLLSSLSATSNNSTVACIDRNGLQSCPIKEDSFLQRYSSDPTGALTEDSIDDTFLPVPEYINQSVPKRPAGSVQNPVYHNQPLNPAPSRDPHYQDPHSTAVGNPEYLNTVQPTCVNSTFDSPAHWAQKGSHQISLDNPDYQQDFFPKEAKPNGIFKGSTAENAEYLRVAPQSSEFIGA
In experiment [4] the target is T1, Ephrin type-A receptor 3 (Homo sapiens) (UniProt P29320).
T1 sequence (whole entry): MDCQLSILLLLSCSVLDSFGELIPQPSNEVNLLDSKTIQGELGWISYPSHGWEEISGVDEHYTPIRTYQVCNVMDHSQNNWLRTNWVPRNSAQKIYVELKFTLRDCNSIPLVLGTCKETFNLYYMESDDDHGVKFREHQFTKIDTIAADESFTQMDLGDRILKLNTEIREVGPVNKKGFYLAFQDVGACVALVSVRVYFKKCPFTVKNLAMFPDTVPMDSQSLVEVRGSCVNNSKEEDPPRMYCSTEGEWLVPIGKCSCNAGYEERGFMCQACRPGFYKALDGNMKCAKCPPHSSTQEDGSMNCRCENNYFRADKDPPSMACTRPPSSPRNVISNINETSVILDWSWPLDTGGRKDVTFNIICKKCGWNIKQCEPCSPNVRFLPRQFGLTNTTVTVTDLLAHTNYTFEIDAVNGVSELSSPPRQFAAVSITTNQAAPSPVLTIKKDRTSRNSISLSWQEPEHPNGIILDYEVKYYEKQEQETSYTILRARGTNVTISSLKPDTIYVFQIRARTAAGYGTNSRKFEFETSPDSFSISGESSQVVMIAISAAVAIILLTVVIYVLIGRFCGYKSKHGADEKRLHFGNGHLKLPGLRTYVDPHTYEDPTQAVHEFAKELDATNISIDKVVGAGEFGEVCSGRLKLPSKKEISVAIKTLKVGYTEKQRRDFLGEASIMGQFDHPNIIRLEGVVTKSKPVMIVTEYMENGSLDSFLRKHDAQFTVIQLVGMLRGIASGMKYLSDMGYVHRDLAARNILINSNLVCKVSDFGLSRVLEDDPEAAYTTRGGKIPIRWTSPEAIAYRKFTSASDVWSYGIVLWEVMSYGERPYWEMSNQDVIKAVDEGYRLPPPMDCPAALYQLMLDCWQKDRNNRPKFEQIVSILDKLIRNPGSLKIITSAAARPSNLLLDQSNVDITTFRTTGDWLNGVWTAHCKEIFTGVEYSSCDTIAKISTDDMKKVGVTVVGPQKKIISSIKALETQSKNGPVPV
As to the kind of experiment: Inhibition of human EPHA3 assessed as enzyme activity at 1 uM using poly[Glu:Tyr] (4:1) as substrate preincubated for 20 mins followed by [gamma-33P]-ATP addition and measured after 120 mins by radiometric Hot-SpotSM Kinase assay relative to control.

For experiment [5], the target named is T2, Interleukin-1 receptor-associated kinase 4 (Homo sapiens) (UniProt Q9NWZ3).
T2 sequence (whole entry): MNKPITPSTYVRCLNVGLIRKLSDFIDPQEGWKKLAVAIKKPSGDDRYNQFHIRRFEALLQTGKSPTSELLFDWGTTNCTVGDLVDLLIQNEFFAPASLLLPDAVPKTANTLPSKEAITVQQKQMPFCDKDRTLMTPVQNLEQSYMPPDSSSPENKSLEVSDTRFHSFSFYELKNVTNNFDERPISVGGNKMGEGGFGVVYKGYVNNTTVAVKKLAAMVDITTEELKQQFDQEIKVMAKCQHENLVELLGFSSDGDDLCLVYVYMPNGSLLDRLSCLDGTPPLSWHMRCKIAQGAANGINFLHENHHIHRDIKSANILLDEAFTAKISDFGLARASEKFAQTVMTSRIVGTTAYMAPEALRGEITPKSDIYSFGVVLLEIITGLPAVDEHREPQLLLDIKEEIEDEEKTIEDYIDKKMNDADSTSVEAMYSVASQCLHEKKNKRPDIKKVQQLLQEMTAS
Nature of the experiment: Inhibition of human IRAK4 assessed as enzyme activity at 1 uM using myelin basic protein as substrate preincubated for 20 mins followed by [gamma-33P]-ATP addition and measured after 120 mins by radiometric Hot-SpotSM Kinase assay relative to control.

For experiment [6], the target named is Serine/threonine-protein kinase pim-3 (Homo sapiens) (UniProt Q86V86). As to the kind of experiment: Inhibition of human PIM3 assessed as enzyme activity at 1 uM using RSRHSSYPAGT as substrate preincubated for 20 mins followed by [gamma-33P]-ATP addition and measured after 120 mins by radiometric Hot-SpotSM Kinase assay relative to control.
Experiment [7] deals with T3, cAMP-dependent protein kinase catalytic subunit PRKX (Homo sapiens) (UniProt P51817).
T3 sequence (whole entry): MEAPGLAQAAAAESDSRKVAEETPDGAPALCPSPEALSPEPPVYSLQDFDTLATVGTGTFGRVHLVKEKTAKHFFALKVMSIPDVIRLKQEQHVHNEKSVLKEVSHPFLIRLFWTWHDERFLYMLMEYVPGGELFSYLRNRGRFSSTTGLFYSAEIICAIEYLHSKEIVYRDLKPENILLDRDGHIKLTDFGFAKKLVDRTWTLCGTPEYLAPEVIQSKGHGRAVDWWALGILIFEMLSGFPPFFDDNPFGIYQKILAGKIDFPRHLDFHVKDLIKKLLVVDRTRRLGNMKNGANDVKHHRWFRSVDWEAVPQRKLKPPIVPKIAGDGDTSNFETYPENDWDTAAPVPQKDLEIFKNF
As to the kind of experiment: Inhibition of human PRKX assessed as enzyme activity at 1 uM using LRRASLG as substrate preincubated for 20 mins followed by [gamma-33P]-ATP addition and measured after 120 mins by radiometric Hot-SpotSM Kinase assay relative to control.

Experiment [8] has as its target NT-3 growth factor receptor (Homo sapiens) (UniProt Q16288). As to the kind of experiment: Inhibition of human TRKC assessed as enzyme activity at 1 uM using poly[Glu:Tyr] (4:1) as substrate preincubated for 20 mins followed by [gamma-33P]-ATP addition and measured after 120 mins by radiometric Hot-SpotSM Kinase assay relative to control.
The target in experiment [9] is Wee1-like protein kinase (Homo sapiens) (UniProt P30291). Nature of the experiment: Inhibition of human WEE1 assessed as enzyme activity at 1 uM using CDK1 (D146N)/cyclin B1 as substrate preincubated for 20 mins followed by [gamma-33P]-ATP addition and measured after 120 mins by radiometric Hot-SpotSM Kinase assay relative to control.
Sequence of Wee1-like protein kinase (Homo sapiens) (P30291 whole entry, looked up): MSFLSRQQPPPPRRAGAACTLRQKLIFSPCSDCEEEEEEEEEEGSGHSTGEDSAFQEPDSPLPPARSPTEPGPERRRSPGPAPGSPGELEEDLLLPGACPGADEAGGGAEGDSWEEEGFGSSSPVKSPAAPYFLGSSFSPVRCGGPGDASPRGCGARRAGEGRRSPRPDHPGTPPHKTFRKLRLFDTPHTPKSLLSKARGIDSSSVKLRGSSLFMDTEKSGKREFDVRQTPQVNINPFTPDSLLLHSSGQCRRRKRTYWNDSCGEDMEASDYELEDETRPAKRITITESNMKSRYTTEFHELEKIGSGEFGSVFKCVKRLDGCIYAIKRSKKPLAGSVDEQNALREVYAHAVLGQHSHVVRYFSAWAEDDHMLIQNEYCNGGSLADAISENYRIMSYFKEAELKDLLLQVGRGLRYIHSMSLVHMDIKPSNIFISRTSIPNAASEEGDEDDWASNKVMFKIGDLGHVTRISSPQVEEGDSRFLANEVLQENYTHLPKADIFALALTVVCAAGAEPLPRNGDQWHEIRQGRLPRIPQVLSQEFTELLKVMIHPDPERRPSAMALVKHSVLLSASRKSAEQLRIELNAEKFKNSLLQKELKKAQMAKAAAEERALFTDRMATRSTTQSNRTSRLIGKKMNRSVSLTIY

Sequence of NT-3 growth factor receptor (Homo sapiens) (Q16288 32-839 limits assumed): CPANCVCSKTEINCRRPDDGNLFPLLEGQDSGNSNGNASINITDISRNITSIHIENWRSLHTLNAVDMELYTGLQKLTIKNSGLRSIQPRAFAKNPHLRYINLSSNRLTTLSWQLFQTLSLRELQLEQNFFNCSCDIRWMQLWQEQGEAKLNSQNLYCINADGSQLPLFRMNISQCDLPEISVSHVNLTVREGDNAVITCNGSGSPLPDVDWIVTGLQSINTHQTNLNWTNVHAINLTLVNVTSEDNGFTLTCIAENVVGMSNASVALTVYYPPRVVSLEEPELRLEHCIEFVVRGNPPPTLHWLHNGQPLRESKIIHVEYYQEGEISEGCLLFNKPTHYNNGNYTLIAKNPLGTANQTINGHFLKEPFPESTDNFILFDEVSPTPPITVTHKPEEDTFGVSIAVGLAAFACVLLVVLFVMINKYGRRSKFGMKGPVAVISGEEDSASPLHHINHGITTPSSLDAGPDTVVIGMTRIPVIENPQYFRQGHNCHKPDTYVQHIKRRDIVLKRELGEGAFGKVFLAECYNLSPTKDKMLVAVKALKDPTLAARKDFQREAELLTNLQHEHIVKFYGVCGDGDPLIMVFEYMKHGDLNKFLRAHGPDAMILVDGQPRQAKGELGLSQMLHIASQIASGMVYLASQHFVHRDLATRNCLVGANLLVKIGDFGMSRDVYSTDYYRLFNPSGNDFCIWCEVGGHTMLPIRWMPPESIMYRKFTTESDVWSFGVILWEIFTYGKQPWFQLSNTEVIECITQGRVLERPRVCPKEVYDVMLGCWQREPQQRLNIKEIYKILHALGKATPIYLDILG

In the case of `C[C@H](Nc1ncnc2nc[nH]c12)c1cc2cccc(Cl)c2c(=O)n1-c1ccccc1`, the Activity in experiment [1] was 95.5%; in [2], 97.5%; in [3], 99.1%; in [4], 93.9%; in experiment [5], 91%; in experiment [6], 95.4%. The Activity was determined as 98.6% in experiment [7], 91% in experiment [8] and 87.3% in experiment [9].

For the compound `CC[C@H](Nc1ncnc2[nH]cnc12)c1nc2cccc(F)c2c(=O)n1-c1ccccc1`, the Activity in [1] was 90.7%; in experiment [2], 99.3%; in [3], 95.4%; in experiment [4], 93.4%; in experiment [5] it was 96.3%; in [6], 104%. For the same compound, the values for the Activity in experiment [7], in experiment [8] and in [9] were 97.6%, 89.6% and 96.7%, respectively.

As for `CC(C)Oc1ccc(-c2nn([C@@H](C)c3oc4ccc(F)cc4c(=O)c3-c3cccc(F)c3)c3ncnc(N)c23)cc1F` [UMBRALISIB], the Activity is 93.6% in experiment [1]; 98.8% in [2]; 97.7% in experiment [3]; 92.9% in experiment [4]; 101% in experiment [5]; 102% in [6]. Further, the Activity in [7] was found to be 90.8%; in experiment [8], 88.7%; in experiment [9], 106%.
